Results published in US11382918B2, “Methods for treating Huntington's Disease” (PTC Therapeutics, Inc., priority 2017, dated 2022).
pIC50: −log10 of the molar value.

System: Endogenous Huntingtin Protein (HTT)
Experiment: Endogenous Huntingtin Protein Assay (ELISA-based MSD electrochemiluminescence)
Format: cell-based
Conditions: Table 1
Procedure, shortened: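 HTT protein in lysates was measured by electrochemiluminescence on the MSD platform. Rabbit monoclonal 5656S followed by SULFO-TAG anti-rabbit antibody served for detection after overnight 4 °C capture with MAB2166 or the polyglutamine-directed MW1 antibody.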

pIC50	Structure (SMILES)
4.48 to 5.52	O=c1cc(-c2ccn3ccnc3c2)nc2ccc(N3CCNCC3)cn12 [compound 107, 2-(imidazo[1,2-a]pyridin-7-yl)-7-(piperazin-1-yl)-4H-pyrido[1,2-a]pyrimidin-4-one]
4.48 to 5.52	Cc1cn2nc(-c3cc(=O)n4cc(N5CCN(C)CC5)ccc4n3)cc2c(N(C)C)n1 [compound 843, 2-[4-(dimethylamino)-6-methylpyrazolo[1,5-a]pyrazin-2-yl]-7-(4-methylpiperazin-1-yl)-4H-pyrido[1,2-a]pyrimidin-4-one]
4.48 to 5.52	Cc1cn2nc(-c3cc(=O)n4cc(N5CC[C@@H](CN(C)C)C5)ccc4n3)cc2c(C)n1 [compound 770, 7-{(3S)-3-[(dimethylamino)methyl]pyrrolidin-1-yl}-2-(4,6-dimethylpyrazolo[1,5-a]pyrazin-2-yl)-4H-pyrido[1,2-a]pyrimidin-4-one]
5.52 to 6.00	Cc1cn2nc(-c3cc(=O)n4cc(N5CCNCC5)ccc4n3)cc2c(C)n1 [compound 120, 2-(4,6-dimethylpyrazolo[1,5-a]pyrazin-2-yl)-7-(piperazin-1-yl)-4H-pyrido[1,2-a]pyrimidin-4-one]
4.48 to 5.52	Cc1cn2nc(-c3cc(=O)n4cc(N5CCN(C)CC5)ccc4n3)cc2c(C2CC2)n1 [compound 684, 2-(4-cyclopropyl-6-methylpyrazolo[1,5-a]pyrazin-2-yl)-7-(4-methylpiperazin-1-yl)-4H-pyrido[1,2-a]pyrimidin-4-one]
4.48 to 5.52	Cc1cn2nc(-c3cc(=O)n4cc(N5CCC(C)(N)CC5)ccc4n3)cc2c(C)n1 [compound 584, 7-(4-amino-4-methylpiperidin-1-yl)-2-(4,6-dimethylpyrazolo[1,5-a]pyrazin-2-yl)-4H-pyrido[1,2-a]pyrimidin-4-one]
6.00 to 6.30	Cc1cc2cc(-c3cc(=O)n4cc(N5CCNCC5)ccc4n3)oc2c(C)n1 [compound 486, 2-(5,7-dimethylfuro[2,3-c]pyridin-2-yl)-7-(piperazin-1-yl)-4H-pyrido[1,2-a]pyrimidin-4-one]
4.48 to 5.52	Cn1ccc2cc(-c3cc(=O)n4cc(N5CCNCC5)ccc4n3)cnc21 [compound 129, 2-(1-methyl-1H-pyrrolo[2,3-b]pyridin-5-yl)-7-(piperazin-1-yl)-4H-pyrido[1,2-a]pyrimidin-4-one]
4.48 to 5.52	C[C@H]1CN(c2ccc3nc(-c4ccc5c(cnn5C)c4)cc(=O)n3c2)CCN1 [compound 553, 2-(1-methyl-1H-indazol-5-yl)-7-[(3S)-3-methylpiperazin-1-yl]-4H-pyrido[1,2-a]pyrimidin-4-one]
4.48 to 5.52	O=c1cc(-c2ccc3nccn3c2)nc2ccc(N3CCNCC3)cn12 [compound 108, 2-(imidazo[1,2-a]pyridin-6-yl)-7-(piperazin-1-yl)-4H-pyrido[1,2-a]pyrimidin-4-one]
4.48 to 5.52	COc1ccc(-c2cc(=O)n3cc(N4CCC(N(C)C)CC4)cc(C)c3n2)cc1OC [compound 261, 2-(3,4-dimethoxyphenyl)-7-[4-(dimethylamino)piperidin-1-yl]-9-methyl-4H-pyrido[1,2-a]pyrimidin-4-one]
6.30 to 7.00	Cc1cn2nc(-c3cc(=O)n4cc(C5CCNCC5)ccc4n3)cc2c(C)n1 [compound 452, 2-(4,6-dimethylpyrazolo[1,5-a]pyrazin-2-yl)-7-(piperidin-4-yl)-4H-pyrido[1,2-a]pyrimidin-4-one]
6.00 to 6.30	CCc1cc(-c2cc(=O)n3cc(N4CCNCC4)ccc3n2)cn2cc(C)nc12 [compound 637, 2-(8-ethyl-2-methylimidazo[1,2-a]pyridin-6-yl)-7-(piperazin-1-yl)-4H-pyrido[1,2-a]pyrimidin-4-one]
4.48 to 5.52	Cc1nc2ccc(-c3cc(=O)n4cc(N5CCNC(C)(C)C5)ccc4n3)cc2o1 [compound 194, 7-(3,3-dimethylpiperazin-1-yl)-2-(2-methyl-1,3-benzoxazol-6-yl)-4H-pyrido[1,2-a]pyrimidin-4-one]
6.00 to 6.30	Cc1cn2cc(-c3cc(=O)n4cc(N5CCN(C)CC5)ccc4n3)cc(F)c2n1 [compound 269, 2-(8-fluoro-2-methylimidazo[1,2-a]pyridin-6-yl)-7-(4-methylpiperazin-1-yl)-4H-pyrido[1,2-a]pyrimidin-4-one]
5.52 to 6.00	Cc1cn2cc(-c3cc(=O)n4cc(N5CCN(C)CC5)ccc4n3)cc(C)c2n1 [compound 868, 2-(2,8-dimethylimidazo[1,2-a]pyridin-6-yl)-7-(4-methylpiperazin-1-yl)-4H-pyrido[1,2-a]pyrimidin-4-one]
4.48 to 5.52	CCc1nc(C)cn2nc(-c3cc(=O)n4cc(C5CCN(C(C)C)CC5)ccc4n3)cc12 [compound 679, 2-(4-ethyl-6-methylpyrazolo[1,5-a]pyrazin-2-yl)-7-[1-(propan-2-yl)piperidin-4-yl]-4H-pyrido[1,2-a]pyrimidin-4-one]
4.48 to 5.52	CN(C)c1ccc(-c2cc(=O)n3cc(C4CCNCC4)ccc3n2)cn1 [compound 465, 2-[6-(dimethylamino)pyridin-3-yl]-7-(piperidin-4-yl)-4H-pyrido[1,2-a]pyrimidin-4-one]
6.30 to 7.00	CCc1nc(C)cn2nc(-c3cc(=O)n4cc(C5CCN(CC)CC5)ncc4n3)cc12 [compound 655, 2-(4-ethyl-6-methylpyrazolo[1,5-a]pyrazin-2-yl)-7-(1-ethylpiperidin-4-yl)-4H-pyrazino[1,2-a]pyrimidin-4-one]
5.52 to 6.00	CCN1CCC(c2cc(C)c3nc(-c4cc5c(C)nc(C)cn5n4)cc(=O)n3c2)CC1 [compound 702, 2-(4,6-dimethylpyrazolo[1,5-a]pyrazin-2-yl)-7-(1-ethylpiperidin-4-yl)-9-methyl-4H-pyrido[1,2-a]pyrimidin-4-one]
6.30 to 7.00	Cc1cc(C2CCN(C3CC3)CC2)cn2c(=O)cc(-c3ccc4nn(C)cc4c3)nc12 [compound 718, 7-(1-cyclopropylpiperidin-4-yl)-9-methyl-2-(2-methyl-2H-indazol-5-yl)-4H-pyrido[1,2-a]pyrimidin-4-one]
6.30 to 7.00	Cc1cc(-c2cc(=O)n3cc(C4CCN(C)CC4)ccc3n2)cc2cn(C)nc12 [compound 752, 2-(2,7-dimethyl-2H-indazol-5-yl)-7-(1-methylpiperidin-4-yl)-4H-pyrido[1,2-a]pyrimidin-4-one]
6.00 to 6.30	Cc1cn2nc(-c3cc(=O)n4cc(C5CCN(CCF)CC5)ccc4n3)cc2c(C)n1 [compound 662, 2-(4,6-dimethylpyrazolo[1,5-a]pyrazin-2-yl)-7-[1-(2-fluoroethyl)piperidin-4-yl]-4H-pyrido[1,2-a]pyrimidin-4-one]
4.48 to 5.52	CCN(CC)C1CCN(c2ccc3nc(-c4cc5c(C)nc(C)cn5n4)cc(=O)n3c2)CC1 [compound 451, 7-[4-(diethylamino)piperidin-1-yl]-2-(4,6-dimethylpyrazolo[1,5-a]pyrazin-2-yl)-4H-pyrido[1,2-a]pyrimidin-4-one]
5.52 to 6.00	Cc1cn2cc(-c3ccc4nc(C5CCNCC5)cc(=O)n4c3)ccc2n1 [compound 409, 7-(2-methylimidazo[1,2-a]pyridin-6-yl)-2-(piperidin-4-yl)-4H-pyrido[1,2-a]pyrimidin-4-one]
6.00 to 6.30	Cc1cc(-c2cc(=O)n3cc(N4CCN[C@H](C)C4)ccc3n2)cc2cn(C)nc12 [compound 741, 2-(2,7-dimethyl-2H-indazol-5-yl)-7-[(3R)-3-methylpiperazin-1-yl]-4H-pyrido[1,2-a]pyrimidin-4-one]
4.48 to 5.52	Cc1cn2cc(-c3cc(=O)n4cc(C5CCN(C6CCC6)CC5)ncc4n3)ccc2n1 [compound 628, 7-(1-cyclobutylpiperidin-4-yl)-2-(2-methylimidazo[1,2-a]pyridin-6-yl)-4H-pyrazino[1,2-a]pyrimidin-4-one]
4.48 to 5.52	Cc1cn2ccc(-c3cc(=O)n4cc(C5CCNCC5)ccc4n3)cc2n1 [compound 556, 2-(2-methylimidazo[1,2-a]pyridin-7-yl)-7-(piperidin-4-yl)-4H-pyrido[1,2-a]pyrimidin-4-one]
6.30 to 7.00	Cc1cc(C2CCN(C3CCC3)CC2)cn2c(=O)cc(-c3ccc4nn(C)cc4c3)nc12 [compound 710, 7-(1-cyclobutylpiperidin-4-yl)-9-methyl-2-(2-methyl-2H-indazol-5-yl)-4H-pyrido[1,2-a]pyrimidin-4-one]
6.30 to 7.00	Cc1cc(N2CCN[C@@H](C)C2)cn2c(=O)cc(-c3ccc4nn(C)cc4c3)nc12 [compound 756, 9-methyl-2-(2-methyl-2H-indazol-5-yl)-7-[(3S)-3-methylpiperazin-1-yl]-4H-pyrido[1,2-a]pyrimidin-4-one]

Structure (SMILES)	pIC50
CCN1CC=C(c2ccc3nc(-c4ccc5c(cnn5C)c4)cc(=O)n3c2)CC1 [compound 463, 7-(1-ethyl-1,2,3,6-tetrahydropyridin-4-yl)-2-(1-methyl-1H-indazol-5-yl)-4H-pyrido[1,2-a]pyrimidin-4-one]	4.48 to 5.52
CCN1CC=C(c2cn3c(=O)cc(-c4ccc5c(cnn5C)c4)nc3cn2)CC1 [compound 507, 7-(1-ethyl-1,2,3,6-tetrahydropyridin-4-yl)-2-(1-methyl-1H-indazol-5-yl)-4H-pyrazino[1,2-a]pyrimidin-4-one]	4.48 to 5.52
CN1CC=C(c2ccc3nc(-c4ccc(N(C)C)nc4)cc(=O)n3c2)CC1 [compound 450, 2-[6-(dimethylamino)pyridin-3-yl]-7-(1-methyl-1,2,3,6-tetrahydropyridin-4-yl)-4H-pyrido[1,2-a]pyrimidin-4-one]	4.48 to 5.52
Cc1cn2nc(-c3cc(=O)n4cc(C5=CCN(C)CC5)cc(C)c4n3)cc2c(C)n1 [compound 481, 2-(4,6-dimethylpyrazolo[1,5-a]pyrazin-2-yl)-9-methyl-7-(1-methyl-1,2,3,6-tetrahydropyridin-4-yl)-4H-pyrido[1,2-a]pyrimidin-4-one]	4.48 to 5.52
CCc1nc(C)cn2nc(-c3cc(=O)n4cc(C5=CCNCC5)cc(C)c4n3)cc12 [compound 773, 2-(4-ethyl-6-methylpyrazolo[1,5-a]pyrazin-2-yl)-9-methyl-7-(1,2,3,6-tetrahydropyridin-4-yl)-4H-pyrido[1,2-a]pyrimidin-4-one]	4.48 to 5.52
Cc1cc2cc(-c3cc(=O)n4cc(C5=CCNCC5)ccc4n3)ccn2n1 [compound 857, 2-(2-methylpyrazolo[1,5-a]pyridin-5-yl)-7-(1,2,3,6-tetrahydropyridin-4-yl)-4H-pyrido[1,2-a]pyrimidin-4-one]	6.00 to 6.30
